# Source: ChEMBL document CHEMBL6182878, “Discovery of novel transforming growth factor β type 1 receptor inhibitors through structure-based virtual screening, preliminary structure-activity relationship study, and biological evaluation in hepatocellular carcinoma” (Bioorg Med Chem, 2025)
# pEC50: −log10 of the molar value. Calls of active or inactive are those of the source. No cut-off for these calls is given here.
# Columns and labels:
# Hep 3B2 [1] = assay: Growth inhibition of human Hep3B cells incubated for 72 hrs by CCK-8 assay; type: functional
# [2] = Inhibition of TGFbeta-dependent SMAD2/3 phosphorylation in mouse NIH3T3 cells incubated for 24 hrs by luciferase reporter assay; settings: NIH3T3, 24 h
# [3] = biological target: Mothers against decapentaplegic homolog 2 (Homo sapiens) (UniProt Q15796); assay: Inhibition of TGFbeta-induced SMAD2 phosphorylation at S465/467 residues in serum-starved human Hep3B cells preincubated with compound for 30 mins followed by TGFbeta addition and measured after 30 mins by Western blotting analysis; type: cell-based; settings: dose 1-10 µM, time 60.0 min
# Sequence of Mothers against decapentaplegic homolog 2 (Homo sapiens) (Q15796 whole entry): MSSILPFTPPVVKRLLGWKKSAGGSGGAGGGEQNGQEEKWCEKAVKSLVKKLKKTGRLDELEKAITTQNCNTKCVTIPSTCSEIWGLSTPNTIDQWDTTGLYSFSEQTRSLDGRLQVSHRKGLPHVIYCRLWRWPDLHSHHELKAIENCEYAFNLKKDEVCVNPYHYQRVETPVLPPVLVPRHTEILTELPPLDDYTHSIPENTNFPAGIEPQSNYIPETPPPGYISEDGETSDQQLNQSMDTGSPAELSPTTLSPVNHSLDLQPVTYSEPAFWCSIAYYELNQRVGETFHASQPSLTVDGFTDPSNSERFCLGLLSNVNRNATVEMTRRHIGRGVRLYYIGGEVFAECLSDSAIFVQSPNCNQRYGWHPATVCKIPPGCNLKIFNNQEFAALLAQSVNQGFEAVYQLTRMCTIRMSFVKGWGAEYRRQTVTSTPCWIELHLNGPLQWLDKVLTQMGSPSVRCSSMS
# Hep 3B2 [4] = assay: Induction of apoptosis in human Hep3B cells at 5 uM incubated for 72 hrs by Annexin V-FITC/PI staining based flow cytometry; type: functional, cell-based
# Hep 3B2 [5] = assay: Induction of apoptosis in human Hep3B cells at 10 uM incubated for 48 to 72 hrs in presence of sorafenib by Annexin V-FITC/PI staining based flow cytometry; type: functional, cell-based; settings: time 48-72 hrs
# Hep 3B2 [6] = assay: Induction of apoptosis in human Hep3B cells at 10 uM incubated for 48 hrs by Annexin V-FITC/PI staining based flow cytometry; type: functional, cell-based
# Hep 3B2 [7] = assay: Synergistic antiproliferative activity against human Hep3B cells at 1.56 to 3.12 uM in presence of sorafenib; type: functional, cell-based; settings: dose 1.56-3.12 µM
Structure (SMILES),GI50 (Hep 3B2 [1]) [µM],pEC50 [2],inhibition [3],Activity (Hep 3B2 [4]),Activity (Hep 3B2 [5]),Activity (Hep 3B2 [6]),Activity (Hep 3B2 [7])
Cc1cccc(-c2nn3c(c2-c2ccnc4ccc(C(N)=O)cc24)CCC3)n1 [GALUNISERTIB],1.07,7.32,Dose-dependent-effect,–,–,–,–
COc1ccc(NS(=O)(=O)c2c[nH]c3ncccc23)cc1,5.71,6.27,–,–,–,–,–
O=S(=O)(Nc1ccc(Cl)cn1)c1c[nH]c2ncccc12,2.86,6.67,–,–,–,–,–
CNC(=O)c1cc(Oc2ccc(NC(=O)Nc3ccc(Cl)c(C(F)(F)F)c3)cc2)ccn1,–,–,–,Active,–,–,–
Cc1nc(NS(=O)(=O)c2c[nH]c3ncccc23)ccc1Cl,2.28,6.80,Dose-dependent-effect,–,Active,Active,Active; Compound Showed Moderate Activity
